Test results taken from patent publication US12281122B1, “PI3K inhibitors” (Cogent Biosciences, Inc., priority 2023, dated 2025).

Key:
[1] = tested on: T47D (PI3Kα-H1047R) cell line; experiment: HTRF phospho-AKT(S473) cell assay in T47D cells; format: cell-based, human
Procedure, shortened: (§1)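 HTRF read-out of phospho-AKT(S473) in lysates gave IC50 values after 2 h compound exposure at 37° C. Dose series was 12 points at 1:3, topping at 5 μM for T47D and 10 μM for SKBR3. Only SKBR3 received 70 ng/ml PDGF-BB during the last 15 minutes.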

[2] = tested on: SKBR3 (PI3Kα-Wild Type) cell line; experiment: HTRF phospho-AKT(S473) cell assay in SKBR3 cells; format: cell-based, human
Procedure, shortened: as §1

[3] = Homo sapiens; T47D (PI3Kα-H1047R) cells, HTRF phospho-AKT(S473), 2 hours compound incubation
[4] = Homo sapiens, SK-BR-3; SKBR3 (PI3Kα-Wild Type) cells, HTRF phospho-AKT(S473), 2 hours compound incubation, PDGF-BB stimulated
[5] = Homo sapiens; HTRF phospho-AKT(S473), T47D (PI3Kα-H1047R) cells, 2 hours compound incubation
[6] = Homo sapiens, SK-BR-3; HTRF phospho-AKT(S473), SKBR3 (PI3Kα-Wild Type) cells, 2 hours compound incubation, PDGF-BB stimulated

| IC50 [1, 3] | IC50 [2, 4] | IC50 [1, 5] | IC50 [2, 6] | SMILES |
| --- | --- | --- | --- | --- |
| < 250 nM | 1000 to 5000 nM | – | – | Cc1cc([C@@H](C)Nc2ccc(Cl)nc2C(=O)NS(C)(=O)=O)c2nc(N3CCC[C@@H](c4ccc(C)nc4)C3)n(C)c(=O)c2c1 (relative stereo) [Compound 238, 6-chloro-3-(((R)-1-(3,6-dimethyl-2-((R*)-3-(6-methylpyridin-3-yl)piperidin-1-yl)-4-oxo-3,4-dihydroquinazolin-8-yl)ethyl)amino)-N-(methylsulfonyl) picolinamide] |
| – | – | 250 to 500 nM | ≥ 5000 nM | Cc1cc([C@@H](C)Nc2ccc(Cl)nc2C(=O)NS(C)(=O)=O)c2nc(N3C[C@@H]4[C@H](C3)[C@H]4c3cc4ccccn4n3)n(C)c(=O)c2c1 [Compound 473] |
| 250 to 500 nM | ≥ 5000 nM | – | – | Cc1cc([C@@H](C)Nc2ccc(Cl)nc2C(=O)NS(C)(=O)=O)c2nc(N3CCC4(CCN(c5ccn(C)n5)C4)CC3)n(C)c(=O)c2c1 [Compound 359, (R)-6-chloro-3-((1-(3,6-dimethyl-2-(2-(1-methyl-1H-pyrazol-3-yl)-2,8-diazaspiro[4.5]decan-8-yl)-4-oxo-3,4-dihydroquinazolin-8-yl)ethyl)amino)-N-(methylsulfonyl) picolinamide] |
| – | – | 250 to 500 nM | ≥ 5000 nM | Cc1cc([C@@H](C)Nc2ccc(Cl)nc2C(=O)NS(C)(=O)=O)c2nc(N3CC[C@H](N(C)c4ncc(F)cn4)C3)n(C)c(=O)c2c1 [Compound 739, 6-chloro-3-(((R)-1-(2-((S)-3-((5-fluoropyrimidin-2-yl)(methyl)amino)pyrrolidin-1-yl)-3,6-dimethyl-4-oxo-3,4-dihydroquinazolin-8-yl)ethyl)amino)-N-(methylsulfonyl) picolinamide] |
| < 250 nM | 1000 to 5000 nM | – | – | Cc1cc([C@@H](C)Nc2ccc(Cl)nc2C(=O)NS(C)(=O)=O)c2nc(N3CCC(c4cccc(=O)n4C)CC3)n(C)c(=O)c2c1 [Compound 370, (R)-6-chloro-3-((1-(3,6-dimethyl-2-(4-(1-methyl-6-oxo-1,6-dihydropyridin-2-yl)piperidin-1-yl)-4-oxo-3,4-dihydroquinazolin-8-yl)ethyl)amino)-N-(methylsulfonyl) picolinamide] |
| – | – | 500 to 1000 nM | 1000 to 5000 nM | CCn1c(N2Cc3cnn(CC(F)(F)F)c3C2)nc2c([C@@H](C)Nc3ccc(Cl)nc3C(=O)NS(C)(=O)=O)cc(C)cc2c1=O [Compound 733, (R)-6-chloro-3-((1-(3-ethyl-6-methyl-4-oxo-2-(1-(2,2,2-trifluoroethyl)-4,6-dihydropyrrolo[3,4-c]pyrazol-5(1H)-yl)-3,4-dihydroquinazolin-8-yl)ethyl)amino)-N-(methylsulfonyl) picolinamide] |
| – | – | 250 to 500 nM | ≥ 5000 nM | COc1nccc(N2C[C@@H]3C[C@H]2CN3c2nc3c([C@@H](C)Nc4ccc(Cl)nc4C(=O)NS(C)(=O)=O)cc(C)cc3c(=O)n2C)n1 [Compound 581, 6-chloro-3-(((R)-1-(2-((1S,4S)-5-(2-methoxypyrimidin-4-yl)-2,5-diazabicyclo [2.2.1]heptan-2-yl)-3,6-dimethyl-4-oxo-3,4-dihydroquinazolin-8-yl)ethyl)amino)-N-(methylsulfonyl) picolinamide] |
| – | – | 250 to 500 nM | ≥ 5000 nM | Cc1cc([C@@H](C)Nc2ccc(Cl)nc2C(=O)NS(C)(=O)=O)c2nc(N3C[C@@H]4C[C@H]3CN4c3ncc(F)cn3)n(C)c(=O)c2c1 [Compound 669, 6-chloro-3-(((R)-1-(2-((1S,4S)-5-(5-fluoropyrimidin-2-yl)-2,5-diazabicyclo [2.2.1]heptan-2-yl)-3,6-dimethyl-4-oxo-3,4-dihydroquinazolin-8-yl)ethyl)amino)-N-(methylsulfonyl) picolinamide] |
| – | – | < 250 nM | ≥ 5000 nM | CCn1ncc(F)c1C1CCN(c2nc3c([C@@H](C)Nc4ccc(Cl)nc4C(=O)NS(C)(=O)=O)cc(C)cc3c(=O)n2C)CC1 [Compound 467, (R)-6-chloro-3-((1-(2-(4-(1-ethyl-4-fluoro-1H-pyrazol-5-yl)piperidin-1-yl)-3,6-dimethyl-4-oxo-3,4-dihydroquinazolin-8-yl)ethyl)amino)-N-(methylsulfonyl) picolinamide] |
| 250 to 500 nM | ≥ 5000 nM | – | – | Cc1cc([C@@H](C)Nc2ccc(Cl)nc2C(=O)NS(C)(=O)=O)c2nc(N3C[C@@H]4[C@H](C3)[C@H]4c3c(F)cnn3C)n(C)c(=O)c2c1 [Compound 424, 6-chloro-3-(((R)-1-(2-((1R,5S,6R)-6-(4-fluoro-1-methyl-1H-pyrazol-5-yl)-3-azabicyclo[3.1.0]hexan-3-yl)-3,6-dimethyl-4-oxo-3,4-dihydroquinazolin-8-yl)ethyl)amino)-N-(methylsulfonyl) picolinamide] |
| – | – | < 250 nM | 1000 to 5000 nM | COc1ncc([C@H]2[C@@H]3CN(c4nc5c([C@@H](C)Nc6ccc(Cl)nc6C(=O)NS(C)(=O)=O)cc(C)cc5c(=O)n4C)C[C@@H]32)cn1 [Compound 483, 6-chloro-3-(((R)-1-(2-((1R,5S,6S)-6-(2-methoxypyrimidin-5-yl)-3-azabicyclo[3.1.0]hexan-3-yl)-3,6-dimethyl-4-oxo-3,4-dihydroquinazolin-8-yl)ethyl)amino)-N-(methylsulfonyl) picolinamide] |
| – | – | 250 to 500 nM | ≥ 5000 nM | Cc1cc([C@@H](C)Nc2ccc(Cl)nc2C(=O)NS(C)(=O)=O)c2nc(N3Cc4cccc(-c5cncn5C)c4C3)n(C)c(=O)c2c1 [Compound 674, (R)-6-chloro-3-((1-(3,6-dimethyl-2-(4-(1-methyl-1H-imidazol-5-yl)isoindolin-2-yl)-4-oxo-3,4-dihydroquinazolin-8-yl)ethyl)amino)-N-(methylsulfonyl) picolinamide] |
| < 250 nM | 1000 to 5000 nM | – | – | C[C@@H](Nc1ccc(Cl)nc1C(=O)NS(C)(=O)=O)c1cc(F)cc2c(=O)n(C)c(N3C[C@@H]4[C@H](C3)[C@H]4c3cnn(C)c3)nc12 [Compound 411, 6-chloro-3-(((R)-1-(6-fluoro-3-methyl-2-((1R,5S,6S)-6-(1-methyl-1H-pyrazol-4-yl)-3-azabicyclo[3.1.0]hexan-3-yl)-4-oxo-3,4-dihydroquinazolin-8-yl)ethyl)amino)-N-(methylsulfonyl) picolinamide] |
| – | – | < 250 nM | 1000 to 5000 nM | Cc1cc([C@@H](C)Nc2ccc(Cl)nc2C(=O)NS(C)(=O)=O)c2nc(N3C[C@@H]4[C@H](C3)[C@H]4c3cnc(C(F)F)nc3)n(C)c(=O)c2c1 [Compound 522, 6-chloro-3-(((R)-1-(2-((1R,5S,6S)-6-(2-(difluoromethyl)pyrimidin-5-yl)-3-azabicyclo[3.1.0]hexan-3-yl)-3,6-dimethyl-4-oxo-3,4-dihydroquinazolin-8-yl)ethyl)amino)-N-(methylsulfonyl) picolinamide] |
| – | – | 250 to 500 nM | ≥ 5000 nM | Cc1cc([C@@H](C)Nc2ccc(Cl)nc2C(=O)NS(C)(=O)=O)c2nc(N3CCC(c4cc5ccccn5n4)CC3)n(C)c(=O)c2c1 [Compound 692, (R)-6-chloro-3-((1-(3,6-dimethyl-4-oxo-2-(4-(pyrazolo[1,5-a]pyridin-2-yl)piperidin-1-yl)-3,4-dihydroquinazolin-8-yl)ethyl)amino)-N-(methylsulfonyl) picolinamide] |
| – | – | 250 to 500 nM | ≥ 5000 nM | Cc1cnc(N2C[C@@H]3C[C@H]2CN3c2nc3c([C@@H](C)Nc4ccc(Cl)nc4C(=O)NS(C)(=O)=O)cc(C)cc3c(=O)n2C)nc1 [Compound 564, 6-chloro-3-(((R)-1-(3,6-dimethyl-2-((1S,4S)-5-(5-methylpyrimidin-2-yl)-2,5-diazabicyclo[2.2.1]heptan-2-yl)-4-oxo-3,4-dihydroquinazolin-8-yl)ethyl)amino)-N-(methylsulfonyl) picolinamide] |
| < 250 nM | 1000 to 5000 nM | – | – | Cc1cc([C@@H](C)Nc2ccc(Cl)nc2C(=O)NS(C)(=O)=O)c2nc(N3CCN(c4ccccc4)CC3)n(C)c(=O)c2c1 [Compound 183, (R)-6-chloro-3-((1-(3,6-dimethyl-4-oxo-2-(4-phenylpiperazin-1-yl)-3,4-dihydroquinazolin-8-yl)ethyl)amino)-N-(methylsulfonyl) picolinamide] |
| – | – | < 250 nM | 1000 to 5000 nM | Cc1cc([C@@H](C)Nc2ccc(Cl)nc2C(=O)NS(C)(=O)=O)c2nc(N3CCC(c4nn(C)nc4C)CC3)n(C)c(=O)c2c1 [Compound 506, (R)-6-chloro-3-((1-(2-(4-(2,5-dimethyl-2H-1,2,3-triazol-4-yl)piperidin-1-yl)-3,6-dimethyl-4-oxo-3,4-dihydroquinazolin-8-yl)ethyl)amino)-N-(methylsulfonyl) picolinamide] |
| – | – | 250 to 500 nM | 1000 to 5000 nM | Cc1cc([C@@H](C)Nc2ccc(Cl)nc2C(=O)NS(C)(=O)=O)c2nc(N3CCC(c4ccc(F)cn4)C3)n(C)c(=O)c2c1 (stereo partly drawn) [Compound 679, 6-chloro-3-(((1R)-1-(2-(3-(5-fluoropyridin-2-yl)pyrrolidin-1-yl)-3,6-dimethyl-4-oxo-3,4-dihydroquinazolin-8-yl)ethyl)amino)-N-(methylsulfonyl) picolinamide] |
| < 250 nM | 1000 to 5000 nM | – | – | Cc1cc([C@@H](C)Nc2ccc(Cl)nc2C(=O)NS(C)(=O)=O)c2nc(N3Cc4cn(C)nc4C3)n(C)c(=O)c2c1 [Compound 396, (R)-6-chloro-3-((1-(3,6-dimethyl-2-(2-methyl-2,6-dihydropyrrolo[3,4-c]pyrazol-5(4H)-yl)-4-oxo-3,4-dihydroquinazolin-8-yl)ethyl)amino)-N-(methylsulfonyl) picolinamide] |
